From paper PMC8745314, “Novel Tetrazole-Based Antimicrobial Agents Targeting Clinical Bacteria Strains: Exploring the Inhibition of Staphylococcus aureus DNA Topoisomerase IV and Gyrase” (International Journal of Molecular Sciences, 2021) come the findings set out here.

Assay [1] concerns the target S. aureus topoisomerase IV (Staphylococcus aureus, UniProt P0C1S7+P0C1U9). The experiment in a line: Topoisomerase IV decatenation assay. The conditions noted are these: decatenation of kinetoplast DNA, read-out: IC50 ± S.E.M. for Topoisomerase IV (converted). It counts as biochemical. The method, then: Description related to conducted biological studies including cell culture, suitable conditions, and methodology was presented in our previous paper.
Figure 1 The effect of tested compounds on S. aureus topoisomerase IV activity. Decreasing amounts of 1, 2, or 3 were incubated with 200 ng kinetoplast DNA and run-on agarose gel. Lane: 1–5: compound 3 at concentrations 64, 32, 8, 2, 0.5 μg/mL, respectively. Lane: 6–10: compound 2 at concentrations 64, 32, 8, 2, 0.5 μg/mL, respectively. Lane: 11–15: compound 1 at concentrations 64, 32, 8, 2, 0.5 μg/mL, respectively.

Assay [2] concerns P. aeruginosa ATCC 15442. The experiment in a line: MIC broth microdilution, standard strain. Format: cell-based. The note with it: Pseudomonas aeruginosa, ATCC15442; P. aeruginosa ATCC 15442, standard strain, 19 h at 35 °C; read-out: minimal inhibitory concentration (MIC). On the procedure:
(§1) All synthesized compounds were tested in vitro against a set of bacteria, including representative standard Gram-positive and Gram-negative rods. Compounds were screened for their minimal inhibitory concentrations (MICs). […] These three compounds were also found to be good inhibitors of the growth of Gram-negative rods: […] The antimicrobial assays were conducted using reference strains of bacteria derived from international microbe collections: American Type Culture Collection (ATCC) and National Collection of Type Culture (NCTC). The following standard strains of bacteria were used: Gram-positive-Staphylococcus aureus NCTC 4163, Staphylococcus aureus ATCC 25923, Staphylococcus aureus ATCC 6538, Staphylococcus aureus ATCC 29213, Staphylococcus epidermidis ATCC 12228, Staphylococcus epidermidis ATCC 35984, Gram-negative: Escherichia coli ATCC 25922, Pseudomonas aeruginosa ATCC 15442. Clinical strains of bacteria used in this study: Gram-positive: Staphylococcus epidermidis 5253, Staphylococcus epidermidis 4243, Staphylococcus aureus […], Staphylococcus aureus […] and Gram-negative: Escherichia coli 520, Escherichia coli 600, Klebsiella pneumoniae 510 and Pseudomonas aeruginosa 659 were obtained from the collection of the Department of Pharmaceutical Microbiology, Medical University of Warsaw, Poland and they were isolated from different biological materials taken from the patients hospitalized in the Warsaw Medical University hospitals. Antimicrobial activity was examined by the minimal inhibitory concentration (MIC) method under standard procedures provided by CLSI with some modifications. MIC was determined by the two-fold serial broth microdilution method in 96-well microtitration plates using Mueller-Hinton II broth medium (Becton Dickinson, Franklin Lakes, NJ, USA). The final inoculum of all studied bacteria was 10^6 CFU/mL (colony forming unit per milliliter). The stock solution of tested compounds was prepared in dimethyl sulfoxide (DMSO) and diluted to a maximum of 1% of solvent content with a sterile medium.
(In general: Dilution methods test growth across graded concentrations, often in twofold steps.)

The subject of assay [3] is E. coli ATCC 25922. Kind of assay: MIC broth microdilution, standard strain. It counts as cell-based. The conditions noted are these: Escherichia coli, ATCC25922; E. coli ATCC 25922, standard strain, 19 h at 35 °C; read-out: minimal inhibitory concentration (MIC). On the procedure:
as §1

Assay [4] concerns S. aureus NCTC 4163. Kind of assay: MIC broth microdilution, standard strain. The note with it: Staphylococcus aureus, NCTC4163; S. aureus NCTC 4163, standard strain, 19 h at 35 °C; read-out: minimal inhibitory concentration (MIC). Format: cell-based. On the procedure: as §1
The subject of assay [5] is S. aureus ATCC 25923. Kind of assay: MIC broth microdilution, standard strain. The note with it: Staphylococcus aureus, ATCC25923; S. aureus ATCC 25923, standard strain, 19 h at 35 °C; read-out: minimal inhibitory concentration (MIC). It counts as cell-based. The method, then:
as §1

Assay [6] concerns S. aureus ATCC 29213. The experiment in a line: MIC broth microdilution, standard strain. The conditions noted are these: Staphylococcus aureus, ATCC29213; S. aureus ATCC 29213, standard strain, 19 h at 35 °C; read-out: minimal inhibitory concentration (MIC). Format: cell-based. On the procedure: (§2) All synthesized compounds were tested in vitro against a set of bacteria, including representative standard Gram-positive and Gram-negative rods. Compounds were screened for their minimal inhibitory concentrations (MICs). […] The antimicrobial assays were conducted using reference strains of bacteria derived from international microbe collections: American Type Culture Collection (ATCC) and National Collection of Type Culture (NCTC). The following standard strains of bacteria were used: Gram-positive-Staphylococcus aureus NCTC 4163, Staphylococcus aureus ATCC 25923, Staphylococcus aureus ATCC 6538, Staphylococcus aureus ATCC 29213, Staphylococcus epidermidis ATCC 12228, Staphylococcus epidermidis ATCC 35984, Gram-negative: Escherichia coli ATCC 25922, Pseudomonas aeruginosa ATCC 15442. Clinical strains of bacteria used in this study: Gram-positive: Staphylococcus epidermidis 5253, Staphylococcus epidermidis 4243, Staphylococcus aureus […], Staphylococcus aureus […] and Gram-negative: Escherichia coli 520, Escherichia coli 600, Klebsiella pneumoniae 510 and Pseudomonas aeruginosa 659 were obtained from the collection of the Department of Pharmaceutical Microbiology, Medical University of Warsaw, Poland and they were isolated from different biological materials taken from the patients hospitalized in the Warsaw Medical University hospitals. […] MIC was determined by the two-fold serial broth microdilution method in 96-well microtitration plates using Mueller-Hinton II broth medium (Becton Dickinson, Franklin Lakes, NJ, USA). The final inoculum of all studied bacteria was 10^6 CFU/mL (colony forming unit per milliliter). The stock solution of tested compounds was prepared in dimethyl sulfoxide (DMSO) and diluted to a maximum of 1% of solvent content with a sterile medium.

The subject of assay [7] is S. epidermidis ATCC 12228. The experiment in a line: MIC broth microdilution, standard strain. Format: cell-based. The conditions noted are these: Staphylococcus epidermidis, ATCC12228; S. epidermidis ATCC 12228, standard strain, 19 h at 35 °C; read-out: minimal inhibitory concentration (MIC). On the procedure: as §2
Assay [8] relates to S. epidermidis ATCC 35984. The experiment in a line: MIC broth microdilution, standard strain. Format: cell-based. The note with it: Staphylococcus epidermidis, ATCC35984; S. epidermidis ATCC 35984, standard strain, 19 h at 35 °C; read-out: minimal inhibitory concentration (MIC). The method, then:
as §2

Assay [9] concerns S. aureus ATCC 6538. Kind of assay: MIC broth microdilution, standard strain. It counts as cell-based. The note with it: Staphylococcus aureus, ATCC6538; S. aureus ATCC 6538, standard strain, 19 h at 35 °C; read-out: minimal inhibitory concentration (MIC). The method, then: as §2

Structures are written as SMILES. In brackets after ≈: the same amount, converted by molar mass.

What is called IC50 is the point on the concentration scale where inhibition reaches its midpoint. For the compound `COc1c(N2C[C@@H]3CCCN[C@@H]3C2)c(F)cc2c(=O)c(C(=O)O)cn(C3CC3)c12` [Moxifloxacin, reference compound], the IC50 in [1] is 2240 nM.
For `CC(C)C12C=CC(C)(CC1)C1C(=O)N(Nc3nnnn3-c3ccccc3)C(=O)C12` (centres unmarked) [Compound 11, 4-Isopropyl-7-methyl-2-((1-phenyl-1H-tetrazol-5-yl)amino)-3a,4,7,7a-tetrahydro-1H-4,7-ethanoisoindole-1,3(2H)-dione], the MIC in assay [2] is > 256 µg/mL; in assay [3], > 256 µg/mL; in assay [4], 128 µg/mL (≈ 326 µM); in [5], 128 µg/mL (≈ 326 µM); in assay [6] it was 128 µg/mL (≈ 326 µM); in assay [7], 256 µg/mL (≈ 652 µM). The MIC in [8] and in assay [9] was 128 µg/mL (≈ 326 µM) each time.
With `CC(C)C12C=CC(C)(CC1)C1C(=O)N(Nc3nnnn3-c3ccccc3Cl)C(=O)C12` (centres unmarked) [Compound 7, 2-((1-(2-Chlorophenyl)-1H-tetrazol-5-yl)amino)-4-isopropyl-7-methyl-3a,4,7,7a-tetrahydro-1H-4,7-ethanoisoindole-1,3(2H)-dione], the MIC in assay [2] was > 256 µg/mL; in assay [3], 128 µg/mL (≈ 300 µM); in assay [4], 32 µg/mL (≈ 75 µM); in [5], 32 µg/mL (≈ 75 µM); in assay [6], 64 µg/mL (≈ 150 µM); in assay [7], 128 µg/mL (≈ 300 µM). Besides, the MIC in assay [8] and in assay [9] was 32 µg/mL (≈ 75 µM) each time.
For `CC1=C(C)C2(C)CC1(C)C1C(=O)N(Nc3nnnn3-c3ccc(C)cc3)C(=O)C12` (centres unmarked) [Compound 5, 4,5,6,7-Tetramethyl-2-((1-(p-tolyl)-1H-tetrazol-5-yl)amino)-3a,4,7,7a-tetrahydro-1H-4,7-methanoisoindole-1,3(2H)-dione], the MIC in [2], in [3], in assay [4], in assay [5], in [6] and in [7] was > 256 µg/mL in each case. The MIC in [8] and in assay [9] was > 256 µg/mL in each case.
`O=C(O)c1cn(C2CC2)c2cc(N3CCNCC3)c(F)cc2c1=O` [Ciprofloxacin, reference compound]: the MIC amounted to 0.125 µg/mL (≈ 0.377 µM) in [2], 0.015 µg/mL (≈ 0.0453 µM) in assay [3], 0.125 µg/mL (≈ 0.377 µM) in [4] and 0.5 µg/mL (≈ 1.51 µM) in [5].
